The values that follow come from US8304420B2, “Substituted quinazolines for reducing platelet count” (Shire LLC, priority 2006, dated 2012).

Read-outs that look alike come from different tables or passages of the source. Marks after values point to notes of the source that are not given here. Where only a bound is given, the exact number is not on record here.

A short description of data set [1]: Solubilities of salts in three solvents (Example 2). To be noted: for solubility at 3 min: 20 °C, thermodynamic from solid.
Description: (§1) The solubilities of various salts was investigated in three solvents [distilled water (pH 5.0), 50 mM ammonium formate (pH 7.9) and 0.1 M hydrochloric acid (pH0.6)]. An excess of the salt was suspended in the chosen medium and sonicated for 3 minutes. The mixture was centrifuged for 10 minutes, the supernatant liquid was collected and the solubility was measured.
The nature of another data set: physchem. To be noted: 20 °C, pH 5, water, thermodynamic from solid.
A short description of data set [2]: Conversion of prodrug to anagrelide in human plasma (LC/MS-MS). The class given is in vitro ADME. The following applies: spiked 100 ng/mL, room temperature, first point of measurement immediately after mixing. The procedure:
Such prodrugs are likely to be extremely rapidly and completely cyclised in plasma to the closed ring 3-alkylanagrelide analogues. […] Human plasma was spiked with anagrelide prodrug (final concentration 100 ng/mL). Immediately after mixing, and at 15, 30, 45 and 60 minutes afterward samples were analysed for anagrelide prodrug and anagrelide.

The conditions of data set [3]: dog, in vivo. On the procedure:
The potential benefit of improved water solubility on the absorption of these open-ring analogues was shown in a comparative bioavailability study in the dog. Using the unsubstituted ethyl-5,6-dichloro-3,4-dihydro-2-(1H)-iminoquinazoline-3-acetate HBr as a model compound, a comparison was made of the systemic availability of anagrelide when given as this compound or as anagrelide itself in equimolar doses (7.7 & 6.1 mg/kg respectively).
The metabolite-to-drug exposure ratio after anagrelide was 1.5 compared to 0.9 after the prodrug.
The lesser variability was consistent with more efficient absorption. This study illustrated the potential benefits of the open-ring prodrugs to improve absorption.

Data set [4] can be described thus: Aqueous solubility / solubility-pH profile.
A short description of data set [5]: Plasma exposure to metabolite after treatment with anagrelide. The class given is in vivo.
In the next data set the test system is PDEIII. The experiment in a line: PDEIII inhibition. The class given is biochemical. To be noted: more potent than anagrelide itself.
Data set [6] has as its system differentiation of human CD34+ stem cells into megakaryocytes. The experiment in a line: In vitro anti-megakaryocytic activity (model of megakaryocytopoiesis). Type of data set: cell-based. The source says:
Such activity may be assessed using a well established model. Assessment of the in vitro anti-megakaryocytic activity—and potentially therefore the platelet lowering capability—of the anagrelide prodrugs can be determined using the model of megakaryocytopoiesis (Cohen-Solal et al., Thromb. Haemost. 1997, 78:37-41 and Cramer et al, Blood, 1997, 89:2336-46). This involves examining the differentiation of human CD34^+ stem cells into megakaryocytes which ultimately give rise to blood platelets.

A short description of data set [7]: Radiolabelling study in humans, oral 14C-labelled drug. Type of data set: in vivo. The procedure:
Anagrelide HCl itself is a poorly soluble drug substance. In the pH range of 4-8, the solubility is less than 10 μg/mL. […] Thus over much of the physiological pH range the drug has very poor aqueous solubility. Even material dissolving in the stomach at pH 1-2 may precipitate in the duodenum at pH 5-6. This presents potential problems for the quantitative absorption from the most likely site for absorption, namely the upper small intestine. As a consequence anagrelide is micronised prior to filling into capsules for clinical use to ensure maximal absorption. […] However for those patients requiring larger doses either as the result of relative insensitivity to the drug, higher first-pass pre-systemic metabolism or greater body weight, the possibility exists for incomplete absorption. This would be expected to lead to increased variability in attained plasma drug concentrations and consequential variability in patient response.

The mark [8] stands for this setting: 50 mM ammonium formate, pH 7.9, aqueous buffer.
The mark [9] stands for this setting: 0.1 M hydrochloric acid, pH 0.6, simulated gastric fluid.
Where [10] appears, read: estimated from the solubility/pH profile.

Description for physchem: as §1

Consider `Cl.O=C1CN2Cc3c(ccc(Cl)c3Cl)N=C2N1`, for which the results for the solubility at 3 min (in [1] (setting [8]); in [1] (setting [9]); in the data set “physchem”) were 11 µg/mL, 169 µg/mL and 10 µg/mL, respectively.

Take `CC(C)(C(=O)[O-])N1Cc2c(ccc(Cl)c2Cl)N=C1N.[Na+]`: the solubility at 3 min is 16 µg/mL in data set [1] (setting [8]); 46 µg/mL in data set [1] (setting [9]); 7340 µg/mL in data set [1] (distilled water, pH 5, water).

For the molecule `Br.O=C1NC2=Nc3ccc(Cl)c(Cl)c3CN2C12CC2`, the solubility at 3 min in [1] (setting [8]) is 1 µg/mL; in data set [1] (setting [9]), 35 µg/mL; in data set [1] (distilled water, pH 5, water), 2 µg/mL.

Regarding `Br.CCOC(=O)CN1Cc2c(ccc(Cl)c2Cl)NC1=N` [ethyl-5,6-dichloro-3,4-dihydro-2-(1H)-iminoquinazoline-3-acetate HBr], the “prodrug found in human plasma (conversion to anagrelide)” value in data set [2] is on record as “no prodrug could be found”. Besides, in data set [3] (po), the “AUC for anagrelide, range across dogs” value was 367-1470 ng.hmL^−1; the “Cmax for anagrelide, range across dogs” value was 170-418 ngmL^−1; the metabolite-to-drug exposure ratio was 0.9. Also, in data set [3] (po, 6.1 mg/kg), the “fold higher Cmax for anagrelide than when the drug itself was administered” value is on record as “approximately 17 fold” and the “mean fold higher AUC for anagrelide than when the drug itself was administered” value was determined as 16 fold. Further, in [4] (distilled water), the solubility was ~5500 µg/mL.

In the case of `O=C1NC2=Nc3ccc(Cl)c(Cl)c3CN2C1O` (stereo not drawn) [3-hydroxyanagrelide], the “plasma exposure to metabolite relative to the drug itself” value in [5] is listed as “three times greater”. In addition, in the data set on PDEIII, the “potency as inhibitor of PDEIII relative to anagrelide” value is listed as ~40 fold.

As to `Br.COC(=O)C1(N2Cc3c(ccc(Cl)c3Cl)N=C2N)CC1`, the solubility at 3 min was 6430 µg/mL in data set [1] (setting [9]) and 7060 µg/mL in data set [1] (distilled water, pH 5, water). The “Solubility, Ammonium formate (50 mM, pH 7.9)” value in data set [1] (ca. 20° C., 50 mM ammonium formate, pH 7.9) was “unstable”.

Consider `Br.CC1(C)C(=O)NC2=Nc3ccc(Cl)cc3CN21`, for which the solubility at 3 min in [1] (setting [8]) was 4 µg/mL; in data set [1] (setting [9]), 215 µg/mL; in data set [1] (distilled water, pH 5, water), 20 µg/mL.

With `CC1(C)C(=O)NC2=Nc3ccc(Cl)c(Cl)c3CN21` [3, 3, dimethyl anagrelide], the half-maximal inhibitory concentration (IC50) in data set [6] is ~160 nM.

On to `Cl.O.O=C1CN2Cc3c(ccc(Cl)c3Cl)N=C2N1` [anagrelide, 6,7-Dichloro-1,5-dihydroimidazo[2,1-b]-quinazolin-2(3H)-one hydrochloride monohydrate], for which, in data set [6] (hydrochloride monohydrate), the concentration for half-maximal inhibition (IC50) was ~27 nM. Moreover, the absorption in data set [7] (implied from urinary recovery after oral 1 mg) was > 75%. In data set [7] (oral 1 mg 14C-labelled drug), the “administered radioactivity recovered in the urine” value is on record as > 75%. In addition, in [3] (po), the “AUC for anagrelide, range across dogs” value is recorded as 21.6-188 ng.hmL^−1 and the “Cmax for anagrelide, range across dogs” value is 9.5-44.3 ngmL^−1. The inherent absorption in [3] (male, 6.1 mg/kg) is given as < 6.25%. In [3] (male, po), the metabolite-to-drug exposure ratio is on record as 1.5. Moreover, in [3] (male, po, 6.1 mg/kg), the “AUC0-t of 3-hydroxy anagrelide, mean” value was 128 ng·h/mL; the “AUCinfin of 3-hydroxy anagrelide, mean” value is 79.9 ng·h/mL; the “Cmax of 3-hydroxy anagrelide, mean” value is 24.9 ng/mL; the “Tmax of 3-hydroxy anagrelide, median” value is 1.5^b hours. For the same molecule, the “t½ of 3-hydroxy anagrelide, calculated as ln2/(mean rate constant)” value in data set [3] (male, po, 6.1 mg/kg) was 2.6^e hours. Further, in [4] (setting [10]), the “dissociation constant pKa1” value is recorded as 2.9 and the “dissociation constant pKa2” value is reported as 9.8.

As a reminder, the solubility is the dissolved amount per volume that the medium holds. Broadly, the IC50 is the point on the concentration scale where inhibition reaches its midpoint. Read a high IC50 as lower potency.
